# Data reported in US6929949B1, “Corona ion generating method and apparatus for the manipulation of molecules and biological cells” (University of South Florida, priority 2002, dated 2005).
# System: human A204 sarcoma cells
# Test: Corona charge facilitated uptake of calcein by cells in culture (fluorescence microscopy)
# Assay type: cell-based
# Conditions: for % FLOURESCENT (percentage of fluorescing cells): 10 μM calcein in PBS, visually estimated
# Method: Referring initially to FIG. 2, the present invention has been used experimentally to facilitate the uptake of calcein by cells in culture. The experimental apparatus is shown as in FIG. 2. 35 mm diameter cell culture plates 4 were seeded with 0.5×10^6 human A204 sarcoma cells 5 approximately 24 hours prior to the experiment to allow time for the cells to attach to the growth surface on the bottom of each dish. Immediately prior to treating the cells with corona charge in air, the growth media was aspirated. Then 500 ÂμI of 10 ÂμM Calcein 6, in phosphate buffered saline 7; was introduced onto the bottom of the plate. Calcein molecules in the phosphate buffered saline are shown in the figure as a negatively charged species. The liquid was distributed over the entire growth surface. […] Corona charge 10 was deposited onto the samples in the presence of calcein for a range of times from 0 minutes to 10 minutes. The solution of calcein was allowed to remain in contact with each sample for a period of 10 minutes after corona exposure. Additionally, a positive or negative bias potential 11 can be applied to the sample. Each plate was then washed with two separate 1 ml aliquots of phosphate buffered saline to remove extracellular calcein. Finally, a 1 ml aliquot of phosphate buffered saline was pipetted into each sample plate. Samples were viewed with florescent microscopy to visually confirm the entry of the nonpermanent calcein resulting from corona charge exposure. The percentage of fluorescing cells was visually estimated based upon the total number of cells in the plates. The table shown below indicates the resulting percentages of fluorescing cells in each sample.
compound,measurement,setting,value
"O=C(O)CN(CC(=O)O)Cc1cc2c(cc1O)Oc1cc(O)c(CN(CC(=O)O)CC(=O)O)cc1C21OC(=O)c2ccccc21 [calcein, Calcein]",entry of calcein into the cells,absence of corona exposure (sample 6),did not result in the entry of calcein into the cells
same,% FLOURESCENT (percentage of fluorescing cells),corona exposure time 0 minutes (no corona exposure),0%
same,% FLOURESCENT (percentage of fluorescing cells),"corona exposure time 2 minutes, positive corona, wire at 6000 V, 2.5 cm away",Less than 1%
same,% FLOURESCENT (percentage of fluorescing cells),"corona exposure time 4 minutes, positive corona, wire at 6000 V, 2.5 cm away",15%
same,% FLOURESCENT (percentage of fluorescing cells),"corona exposure time 6 minutes, positive corona, wire at 6000 V, 2.5 cm away",20%
same,% FLOURESCENT (percentage of fluorescing cells),"corona exposure time 8 minutes, positive corona, wire at 6000 V, 2.5 cm away",30%
same,% FLOURESCENT (percentage of fluorescing cells),"corona exposure time 10 minutes, positive corona, wire at 6000 V, 2.5 cm away",80%
